Experimental data from patent US20210253651A1, “METHOD FOR PRODUCING ORGANIC COMPOUND-ENCAPSULATING FERRITIN” (Ajinomoto Co., Inc., priority 2018, published 2021).
Where two headings read alike, the source gives them in different places.

Columns and labels:
[1] = biological target: T1, FTH ferritin (Homo sapiens, UniProt P02794); test: one-step process incorporation of small molecule agents into FTH ferritin; assay type: physicochemical; conditions: for Incorporation efficiency (wt %) / Number of agent incorporated: 60 min; for Optimal pH in reaction: pH of buffer giving the largest amount of incorporation within ferritin
T1 construct: made in house; host or cells: Escherichia coli BL21 (DE3), plasmid pET20-FTH
T1 sequence (P02794 whole entry): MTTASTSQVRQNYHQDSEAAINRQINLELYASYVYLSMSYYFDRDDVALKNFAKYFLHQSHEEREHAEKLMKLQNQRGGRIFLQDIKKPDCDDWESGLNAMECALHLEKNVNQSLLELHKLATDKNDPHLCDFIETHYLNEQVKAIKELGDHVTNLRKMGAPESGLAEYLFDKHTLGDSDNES
Description: All of the reactions were performed in 0.1 mL volume. […] The absorbances were measured using spectrophotometer (DU-800, Beckman Coulter Inc.) for these solutions, and the concentration of contained protein was determined using the protein assay CBB solution (Nacalai Tesque, Inc.) as well as bovine albumin as a standard. Absorbances at 280 nm and 480 nm were measured for Rhodamine B and Congo Red. […] Then, after the absorbances were calibrated based on the absorbances that were derived from the proteins and presumed by the amount of contained protein quantified using the protein assay CBB solution, the concentrations of small molecule agents were determined based on the calibration curves obtained by the absorbances of the molecules. […] As a result, the one-step process enabled incorporating also the small molecule agents with different physical properties such as molecular weight and pKa simply and easily.

[2] = cited from earlier work
[3] = cited from earlier work; remark: listed apart in the source
[4] = pKa of the organic compound; assay type: physicochemical; conditions: average of plural pKa values
From the text: The pKa of the organic compound can be determined by a neutralization titration method (Kagaku Binran Kiso-hen I and II (Handbook of Chemistry, basic I and II) (Ver. 4) edited by The Chemical Society of Japan, Maruzen Publishing, 1993). […] When the organic compound has a single pKa value, the value is employed as the pKa of the organic compound.

| Molecule | Optimal pH in reaction [1] | Number of agent incorporated ([1]; pH 4, 40° C.) | Number of agent incorporated ([1]; pH 6, 20° C.) | Number of agent incorporated ([1]; pH 6, 40° C.) | Number of agent incorporated ([1]; pH 6, 60° C.) | Number of agent incorporated ([1]; pH 8, 40° C.) | Number of agent incorporated ([1]; pH 10, 40° C.) | Incorporation efficiency (wt %) ([1]; pH 10, 40° C.) | Incorporation efficiency (wt %) ([1]; pH 4, 40° C.) | Incorporation efficiency (wt %) ([1]; pH 6, 40° C.) | Incorporation efficiency (wt %) ([1]; pH 8, 40° C.) | Incorporation efficiency (wt %) ([1]; pH 4, 60° C.) | Number of agent incorporated ([1]; pH 4, 60° C.) | pKa ([2]; single or first pKa value) | logP [3] | Incorporation efficiency (wt %) ([1]; pH 6, 60° C.) | Incorporation efficiency (wt %) ([1]; pH 10, 60° C.) | Number of agent incorporated ([1]; pH 10, 60° C.) | further results |
| --- | --- | --- | --- | --- | --- | --- | --- | --- | --- | --- | --- | --- | --- | --- | --- | --- | --- | --- | --- |
| CN1CC(=O)NC1=N [Creatinine] | 4 |  |  |  |  |  |  |  |  |  |  | 0.5 wt % | 24.8 | 2.96 | −1.6 |  |  |  | Incorporation efficiency (wt %) ([1]; pH 4, 20° C.): 0.4 wt %; Number of agent incorporated ([1]; pH 4, 20° C.): 15.8 |
| NC(N)=Nc1nc(CSCCC(N)=NS(N)(=O)=O)cs1 [Famotidine] | 6 | 0.0 | 36.9 | 15.1 | 23.4 | 8.4 | 5.1 |  |  |  |  |  |  | 8.38 |  |  |  |  |  |
| Rhodamine B | 5 |  |  |  | 3.5 |  | 3.2 | 0.3 wt % |  |  |  | 0.4 wt % | 4.3 | 3.1 | 1.78 | 0.3 wt % | 0.6 wt % | 6.6 | Incorporation efficiency (wt %) ([1]; pH 5, 60° C.): 1.5 wt %; Number of agent incorporated ([1]; pH 5, 60° C.): 16.7; Incorporation efficiency (wt %) ([1]; pH 7, 60° C.): 0.2 wt %; Number of agent incorporated ([1]; pH 7, 60° C.): 2.3; Incorporation efficiency (wt %) ([1]; pH 8, 20° C.): 1.0 wt %; Number of agent incorporated ([1]; pH 8, 20° C.): 11.1; Incorporation efficiency (wt %) ([1]; pH 8, 60° C.): 0.2 wt %; Number of agent incorporated ([1]; pH 8, 60° C.): 1.8; Incorporation efficiency (wt %) ([1]; pH 9, 30° C.): 0.7 wt %; Number of agent incorporated ([1]; pH 9, 30° C.): 7.6; Incorporation efficiency (wt %) ([1]; pH 9, 40° C.): 0.4 wt %; Number of agent incorporated ([1]; pH 9, 40° C.): 3.9; Incorporation efficiency (wt %) ([1]; pH 9, 50° C.): 0.2 wt %; Number of agent incorporated ([1]; pH 9, 50° C.): 2.6; Incorporation efficiency (wt %) ([1]; pH 9, 60° C.): 0.2 wt %; Number of agent incorporated ([1]; pH 9, 60° C.): 2.5; Incorporation efficiency (wt %) ([1]; pH 10, 50° C.): 0.2 wt %; Number of agent incorporated ([1]; pH 10, 50° C.): 2.6 |

Now from value to molecule, other results behind:

| Optimal pH in reaction [1] | Number of agent incorporated ([1]; pH 4, 40° C.) | Number of agent incorporated ([1]; pH 6, 20° C.) | Number of agent incorporated ([1]; pH 6, 40° C.) | Number of agent incorporated ([1]; pH 6, 60° C.) | Number of agent incorporated ([1]; pH 8, 40° C.) | Number of agent incorporated ([1]; pH 10, 40° C.) | Incorporation efficiency (wt %) ([1]; pH 10, 40° C.) | Incorporation efficiency (wt %) ([1]; pH 4, 40° C.) | Incorporation efficiency (wt %) ([1]; pH 6, 40° C.) | Incorporation efficiency (wt %) ([1]; pH 8, 40° C.) | Molecule | Incorporation efficiency (wt %) ([1]; pH 4, 60° C.) | Number of agent incorporated ([1]; pH 4, 60° C.) | pKa ([2]; single or first pKa value) | logP [3] | Incorporation efficiency (wt %) ([1]; pH 6, 60° C.) | Incorporation efficiency (wt %) ([1]; pH 10, 60° C.) | Number of agent incorporated ([1]; pH 10, 60° C.) | further results |
| --- | --- | --- | --- | --- | --- | --- | --- | --- | --- | --- | --- | --- | --- | --- | --- | --- | --- | --- | --- |
| 6 | 8.3 | 65.6 | 20.0 | 12.0 | 12.0 | 4.3 | 0.2 wt % | 0.3 wt % | 0.8 wt % | 0.5 wt % | Nc1cc(N2CCCCC2)nc(N)[n+]1[O-] [Minoxidil] |  |  | 4.61 | 1.24 | 0.5 wt % |  |  | Incorporation efficiency (wt %) ([1]; pH 6, 20° C.): 2.6 wt % |
| 10 | 0.0 |  | 19.5 |  | 21.0 | 27.1 | 1.2 wt % | 0.0 wt % | 0.9 wt % | 0.9 wt % | CC(C)(C)NCC(O)c1cc(O)cc(O)c1 (stereo not shown) [Terbutaline] |  |  | 8.86 | 0.9 |  | 5.3 wt % | 126.8 | Incorporation efficiency (wt %) ([1]; pH 10, 20° C.): 1.4 wt %; Number of agent incorporated ([1]; pH 10, 20° C.): 32.8; pKa ([2]; second pKa value): 9.76; pKa [4]: 9.31 |
